# Results: patent US11680268B2, “Methods for improving CRISPR/Cas-mediated genome-editing” (Editas Medicine, Inc., priority 2014, dated 2023)
# Legend:
# [1] = tested on: HBB locus; assay: Cas9 genome editing at the HBB locus, quantification of repair outcomes (reads); assay type: cell-based
# Text: The data is a representation of at least four independent experiments with a minimum of 350 reads per condition.
# FIG. 12B is a graph depicting the percentage of modification observed in U2OS cells edited at the HBB locus with D10A Cas9 and 2 gRNAs with or without BRCA2 or Rad51. FF is a negative control.
# [2] = tested on: HBB locus; assay: Deletion length at the HBB locus after Cas9 variant cleavage; assay type: cell-based, human; details: U2OS cells, gRNAs 8 and 15, 6 days after electroporation
# Experimental: In this experiment, the deletions occurring in response to different end structures induced by different Cas9 variants were analyzed. […] Cells were collected 6 days after electroporation and genomic DNA was extracted. PCR amplification of the HBB locus was performed and subcloned into a Topo Blunt Vector. For each condition in each experiment (more the 4 independent samples), 98 colonies were analyses were sequenced with Sanger sequencing. Deletions detected by Sanger sequencing were scored for the exact number of nucleotides deleted.
# [3] = tested on: HBB locus; assay: Repair outcomes at the HBB locus after Cas9 variant cleavage, Sanger sequencing of Topo clones; assay type: cell-based, human; details: U2OS cells
# Text: The different repair outcomes induced in response to DSBs introduced by different Cas9 variants were examined (FIG. 3). […] Several different DNA repair outcomes including, e.g., indel mutations resulting from non-homologous end-joining, alternative NHEJ, HDR homologous recombination (HR) using the closely related HBD gene as an endogenous template, or homology dependent repair using an exogenous donor sequence were characterized.
# For some conditions, 50 pmols of single stranded oligonucleotide donor (ss-ODN) was included. Cells were collected 6 days after electroporation and genomic DNA was extracted. PCR amplification of the HBB locus was performed and subcloned into a Topo Blunt Vector. For each condition in each experiment (more the 4 independent samples) 98 colonies were analyses were sequenced with Sanger sequencing and scored for either insertions, deletions, gene conversion or gene corrections.
Substance,repair pathway of the double strand breaks generated [1],"engagement of the 5′ protruding end in HDR ([1]; PAM facing in the opposite orientation, presence of a single-stranded oligonucleotide donor template nucleic acid)",size of deletions [2],efficacy compared to wildtype Cas9 ([3]; gRNAs HBB-8 and HBB-15),"predominant repair outcome of the induced DSBs ([3]; gRNAs HBB-8 and HBB-15, no exogenous ss-ODN, 6 days after electroporation)","repair using the ss-ODN as a template ([3]; gRNAs HBB-8 and HBB-15, with 50 pmols ss-ODN)"
"D10A Cas9 mutant: Cas9 nickase with D10A mutation; D10A inactivates RuvC, only HNH activity; leaves 5′ protruding ends",predominantly repaired by HR,more prone to be engaged in HDR,,,,
D10A: Cas9 nickase mutant (RuvC domain catalytic mutant); two gRNAs with PAMs outwards give 5′ protruding arms,,,mostly larger in nature,comparable levels of efficacy compared to wildtype Cas9,predominantly repaired by the gene conversion pathway,most efficient repair
